Test results from patent publication US6858647B2, “Retinoid compounds suited for antibacterial applications” (Galderma Research & Development S.N.C., priority 2000, dated 2005).
Converted amounts (≈) assume the structure as drawn. Where two headings read alike, the source gives them in different places.

Experiments:
[1] = test system: bacterium Staphylococcus aureus; assay: Minimum bactericidal concentration (MBC); type: cell-based; conditions: Table IV, Example 2, mean of at least three tests, bactericidal activity (MBC)
Description: The technique employed to determine the minimum bactericidal concentration, or MBC, was that described in Bactéricidie, P. Courvalin et al., Editions Maloine, 1990, chapter 7, page 335.
This minimum bactericidal concentration provides an indication as to the bactericidal effect of the test compounds, i.e., the capacity of these compounds to kill the bacterium.
(§1) Each compound of the invention and each comparative example taken from the Pierre Fabre patent application No. FR-2,736,548 was tested at least three times. The mean of the test results was calculated, along with the standard deviation. The reference compound used was gentamycin.

[2] = test system: Staphylococcus aureus CIP52.1; assay: Minimum inhibitory concentration (MIC), NCCLS dilution antimicrobial susceptibility test; type: cell-based; conditions: mean of at least three tests, read-out: MIC RESULTS MEAN
Excerpt: The bacterium Staphylococcus aureus CIP52.1 may be used in order to determine for each test compound the minimum inhibitory concentration for the bacterium, or MIC, expressed in μM.
The technique employed to determine the minimum inhibitory concentration or MIC was that described in the publication entitled “National committee for clinical laboratory standards” Vol. 13, No. 25, December 1993; Methods for dilution antimicrobial susceptibility tests for bacteria that grow aerobically-third edition, approved standard”. This minimum inhibitory concentration gives an indication as to the bacteriostatic effect of the test compounds, i.e., the capacity of these compounds to stop the proliferation of the bacterium.
Each compound of the invention was tested at least three times. The average of the test results was calculated, along with the standard deviation. The reference compound used was gentamycin.
The technique employed to determine the MIC values was the same as that described in Example 1.
as §1

RAR receptor = assay: Biological activity of RAR receptor antagonist / agonist type; conditions: stated in words, no test described
[3] = Table III, Example 2, comparison with retinaldehydes
[4] = Staphylococcus aureus, CIP52, Table II, Example 1, bacteriostatic effect
[5] = Staphylococcus aureus, CIP52, Table III, Example 2, comparison with retinaldehydes
[6] = Table II, Example 1, bacteriostatic effect

| Molecule | biological activity at RAR receptor (antagonist or agonist type) (RAR receptor) | MIC [2, 4] | MIC [2, 6] | further results |
| --- | --- | --- | --- | --- |
| CC1=C(/C=C/C(C)=C/C=C/C(C)=C/C=O)C(C)(C)CCC1 [Comparative Example 1, all-trans-retinaldehyde, reference compound] |  |  |  | MIC [1]: 26.33 µM (≈ 7.49 µg/mL); MIC [2, 3]: 11.64 µM (≈ 3.31 µg/mL) |
| CC1=C(/C=C/C(C)=C\C=C\C(C)=C\C=O)C(C)(C)CCC1 [Comparative Example 2, 9-cis-retinaldehyde, reference compound] |  |  |  | MIC [1]: 16.63 µM (≈ 4.73 µg/mL); MIC [2, 3]: 11.52 µM (≈ 3.28 µg/mL) |
| CC1=C(/C=C/C(C)=C/C=C/C(C)=C\C=O)C(C)(C)CCC1 [Comparative Example 3, 13-cis-retinaldehyde, reference compound] |  |  |  | MIC [1]: 15.97 µM (≈ 4.54 µg/mL); MIC [2, 3]: 7.64 µM (≈ 2.17 µg/mL) |
| COc1c(O)cc(-c2ccc3cc(C(=O)O)ccc3c2)cc1C12CC3CC(CC(C3)C1)C2 [Compound 1, 6-[3-(1-Adamantyl)-4-methoxy-5-hydroxyphenyl]-2-naphthoic acid] | RAR receptor agonist type | 1.04 µM (≈ 0.446 µg/mL) |  | MIC ([1]; Staphylococcus aureus): 12.5 µM (≈ 5.36 µg/mL); MIC [2, 5]: 1.3 µM (≈ 0.557 µg/mL) |
| COCOc1cccc(C=CC#Cc2ccc(C(=O)O)cc2)c1-c1ccc(C)cc1 [Compound 2, 4-[4-(6-Methoxymethoxy-4′-methylbiphenyl-2-yl)but-3-en-1-ynyl]benzoic acid] | RAR receptor antagonist type | 1.04 µM (≈ 0.414 µg/mL) |  | MIC ([1]; Staphylococcus aureus): 16.6 µM (≈ 6.63 µg/mL); MIC [2, 5]: 2.45 µM (≈ 0.976 µg/mL) |
| CC(C)(C)C1=CC(=CC#Cc2ccc(C(=O)O)cc2)C=C(C(C)(C)C)C1=O [Compound 5, 4-[3-(3,5-Di-tert-butyl-4-oxocyclohexa-2,5-dienylidene)prop-1-ynyl]benzoic acid] | RAR receptor agonist type | 1.25 µM (≈ 0.453 µg/mL) |  | MIC ([1]; Staphylococcus aureus): 13.2 µM (≈ 4.78 µg/mL); MIC [2, 5]: 3.3 µM (≈ 1.2 µg/mL) |
| CC1(C)CCC(C)(C)c2cc(-c3cc(-c4ccc(C(=O)O)cc4)ccc3-c3ccc(O)cc3)ccc21 [Compound 9, 4-Hydroxy-2′(5,5,8,8-tetramethyl-5,6,7,8-tetrahydronaphthalen-2-yl) [1,1′,4′,1″]terphenyl-4″-carboxylic acid] | RAR receptor agonist type |  | 1.66 µM (≈ 0.791 µg/mL) |  |
| CC1(C)CCC(C)(C)c2cc(-c3cc(-c4ccc(C(=O)O)cc4O)ccc3-c3ccccc3)ccc21 [Compound 10, 2″-Hydroxy-2′-(5,5,8,8-tetramethyl-5,6,7,8-tetrahydronaphthalen-2-yl) [1,1′,4′,1″]terphenyl-4″-carboxylic acid] | RAR receptor agonist type |  | 1.66 µM (≈ 0.791 µg/mL) |  |
| O=C(O)c1ccc2cc(-c3cc(Br)c(O)c(C45CC6CC(CC(C6)C4)C5)c3)ccc2c1 [Compound 11, 6-(3-Adamantan-1-yl-5-bromo-4-hydroxyphenyl)-naphthalene-2-carboxylic acid] | RAR receptor agonist type | 2.08 µM (≈ 0.993 µg/mL) |  |  |
| CC1(C)CCSc2ccc(-c3cc(-c4ccc(C(=O)O)cc4)ccc3-c3ccccc3)cc21 [Compound 13, 2′-(4,4-Dimethylthiochroman-6-yl) [1,1′,4′,1″]terphenyl-4″-carboxylic acid] | RAR receptor agonist type |  | 2.08 µM (≈ 0.937 µg/mL) |  |
| CC1(C)CCC(C)(C)c2cc(-c3cc(-c4ccc(C(=O)O)cc4)ccc3-c3ccccc3)c(O)cc21 [Compound 14, 2′-(3-Hydroxy-5,5,8,8-tetramethyl-5,6,7,8-tetrahydronaphthalen-2-yl) [1,1′,4′,1″]terphenyl-4″-carboxylic acid] | RAR receptor agonist type |  | 2.08 µM (≈ 0.991 µg/mL) |  |
| CC1(C)CCC(C)(C)c2cc3sc(-c4ccc(C(=O)O)cc4)cc3cc21 [Compound 15, 4-(5,5,8,8-Tetramethyl-5,6,7,8-tetrahydronaphtho-[2,3-b]thiophen-2-yl)benzoic acid] | RAR receptor agonist type | 2.5 µM (≈ 0.911 µg/mL) |  |  |
| O=C(O)c1ccc(-c2ccc3cc(O)c(C45CC6CC(CC(C6)C4)C5)cc3c2)cc1 [Compound 16] | RAR receptor agonist type |  | 2.50 µM (≈ 0.996 µg/mL) |  |
| CCCc1ccc(-c2ccccc2C=CC#Cc2ccc(C(=O)O)cc2)cc1 [Compound 21, 4-[4-(4′-Propylbiphenyl-2-yl)but-3-en-1-ynyl]benzoic acid] | RAR receptor antagonist type | 2.5 µM (≈ 0.916 µg/mL) |  |  |
| COCCOCOc1cc2ccc(-c3ccc(C(=O)O)c(O)c3)cc2cc1C12CC3CC(CC(C3)C1)C2 [Compound 30, 4-[6-Methoxyethoxymethoxy-7-(1-adamantyl)-2-naphthyl] salicylic acid] | RAR receptor antagonist type | 3.33 µM (≈ 1.67 µg/mL) |  |  |
| COCOc1ccc(/C=C/C#Cc2ccc(C(=O)O)cc2)c(-c2ccc(C)cc2)c1 [Compound 31, (E)-4-[4-(5-Methoxymethoxy-4′ -methylbiphenyl-2-yl)but-3-en-1-ynyl]benzoic acid] | RAR receptor antagonist type | 3.33 µM (≈ 1.33 µg/mL) |  |  |
| COc1cccc(-c2ccc(C)cc2)c1C=CC#Cc1ccc(C(=O)O)cc1 [Compound 32, 4-[4-(3-Methoxy-4′-methylbiphenyl-2-yl)but-3-en-1-ynyl]benzoic acid] | RAR receptor antagonist type | 3.33 µM (≈ 1.23 µg/mL) |  |  |
| COCOc1ccccc1-c1ccc(-c2ccc(C(=O)O)cc2)cc1-c1ccc2c(c1)C(C)(C)CCC2(C)C [Compound 34, 2-Methoxymethoxy-2′-(5,5,8,8-tetramethyl-5,6,7,8-tetrahydronaphthalen-2-yl) [1,1′,4′1″]terphenyl-4″carboxylic acid] | RAR receptor antagonist type |  | 3.33 µM (≈ 1.73 µg/mL) |  |
| Cc1ccc(-c2ccccc2C=CC#Cc2ccc(C(=O)O)cc2)cc1 [Compound 37, 4-[4-(4′-Methylbiphenyl-2-yl)but-3-en-1-ynyl]benzoic acid] | RAR receptor antagonist type | 4.16 µM (≈ 1.41 µg/mL) |  |  |
| gentamycin [reference compound] |  |  | 0.11 µM | MIC [1]: 0.26 µM; MIC [2, 3]: 0.14 µM |
